Broadly, the pIC50 is −log10 of the IC50, conventionally taken in molar units.

pIC50: −log10 of the molar value. Calls of active or inactive are those of the source. No cut-off for these calls is given here.

Here are results for 3 compounds from ChEMBL document CHEMBL5038604, “5α-Epoxyalantolactone Inhibits Metastasis of Triple-Negative Breast Cancer Cells by Covalently Binding a Conserved Cysteine of Annexin A2” (J Med Chem, 2021).

In series [1] the test system is 4T1. Briefly: Antitumor activity against mouse 4T1 cells expressing luciferase gene implanted in BALB/c lung metastatic mouse model assessed as reduction in fluorescence at 10 mg/kg, ip administered twice a week for 20 days by luciferase reporter gene based bioluminescence assay. Particulars: time 20.0 day. The format is functional, organism-based.
For series [2], the system named is MDA-MB-231. Briefly: Antiproliferative activity against human MDA-MB-231 cells assessed as reduction in cell viability after 48 hrs by MTT assay. The format is functional, cell-based. The note with it: MDA-MB-231, 48 h. On the technique in general: Formazan colour is commonly taken as a measure of viable cells.
Series [3] concerns 4T1. Briefly: Antiproliferative activity against mouse 4T1 cells assessed as reduction in cell viability after 48 hrs by MTT assay. The format is functional, cell-based. Particulars: 4T1, 48 h.
The test system of series [4] is MDA-MB-231. Briefly: Inhibition of colony formation in human MDA-MB-231 cells at 2.5 to 5 uM incubated for 7 days by crystal violet staining based assay. The format is functional, cell-based. The note with it: dose 2.5-5 µM, time 7.0 day.
In series [5] the test system is 4T1. Briefly: Inhibition of colony formation in mouse 4T1 cells at 2.5 to 5 uM incubated for 7 days by crystal violet staining based assay. The series is classed as functional, cell-based. The note with it: dose 2.5-5 µM, time 7.0 day.
In series [6] the test system is MDA-MB-231. As to the kind of experiment: Inhibition of cell stemness in human MDA-MB-231 cells assessed as reduction in size of tumor spheres incubated in tumorsphere medium for 4 days followed by compound incubation for 96 hrs by microscopic analysis. The series is classed as functional, cell-based.
In series [7] the test system is 4T1. As to the kind of experiment: Inhibition of cell stemness in mouse 4T1 cells assessed as reduction in size of tumor spheres incubated in tumorsphere medium for 4 days followed by compound incubation for 96 hrs by microscopic analysis. The series is classed as functional, cell-based.
The test system of series [8] is MDA-MB-231. Briefly: Inhibition of cell migration in human MDA-MB-231 cells at 2.5 to 5 uM incubated for 36 hrs by wound healing assay. The format is functional, cell-based. Particulars: dose 2.5-5 µM.
The subject of series [9] is 4T1. As to the kind of experiment: Inhibition of cell migration in mouse 4T1 cells at 5 to 10 uM incubated for 24 hrs by wound healing assay. The series is classed as functional, cell-based. The note with it: dose 5-10 µM.
Series [10] has as its system MDA-MB-231. As to the kind of experiment: Antitumor activity against human MDA-MB-231 cells assessed as reduction in cell invasion at 2.5 to 5 uM measured after 24 hrs by crystal violet staining based transwell assay. The format is functional. The note with it: dose 2.5-5 µM.
For series [11], the system named is 4T1. Briefly: Antitumor activity against mouse 4T1 cells assessed as reduction in cell invasion at 2.5 to 5 uM measured after 24 hrs by crystal violet staining based transwell assay. Particulars: dose 2.5-5 µM. The format is functional.
Series [12] relates to MDA-MB-231. Briefly: Antimetastatic activity against human MDA-MB-231 cells assessed as accumulation of E-cadherin in cell cytoplasm at 5 to 10 uM measured after 48 hrs by Western blot analysis. The series is classed as functional, cell-based. The note with it: dose 5-10 µM.
Series [13] concerns MDA-MB-231. As to the kind of experiment: Antimetastatic activity against human MDA-MB-231 cells assessed as decrease in E-cadherin expression in cell membrane at 5 to 10 uM measured after 48 hrs by Western blot analysis. The series is classed as functional, cell-based. Particulars: dose 5-10 µM.
The target in series [14] is T1, Annexin A2/S100-A10 (Homo sapiens) (UniProt P07355+P60903). As to the kind of experiment: Inhibition of human ANXA2/S100A10 interaction in MDA-MB-231 cells pretreated with compound for 48 hrs by immunoprecipitation based Western blot analysis. The format is cell-based.
Series [15] concerns the target T1, Annexin A2/S100-A10 (Homo sapiens). As to the kind of experiment: Inhibition of human ANXA2/S100A10 interaction in MDA-MB-231 cells at 5 to 10 uM measured after 48 hrs by immunocytochemistry assay. Particulars: dose 5-10 µM. The format is cell-based.
Series [16] relates to MDA-MB-231. As to the kind of experiment: Inhibition of cell stemness in human MDA-MB-231 cells assessed as reduction in tumor spheres count at 10 to 20 uM incubated in tumorsphere medium for 4 days followed by compound incubation for 96 hrs by microscopic analysis. The series is classed as functional, cell-based. Particulars: dose 10-20 µM.
For series [17], the system named is 4T1. As to the kind of experiment: Inhibition of cell stemness in mouse 4T1 cells assessed as reduction in tumor spheres count at 10 to 20 uM incubated in tumorsphere medium for 4 days followed by compound incubation for 96 hrs by microscopic analysis. The format is functional, cell-based. Particulars: dose 10-20 µM.
Series [18] has as its system 4T1. Briefly: Antitumor activity against mouse 4T1 cells xenografted in BALB/c mouse assessed as tumor growth inhibition at 100 mg/kg, po administered once a day for 36 days. The format is functional. Particulars: 4T1, po, 864 h, time 36 day, read-out: TGI.
The test system of series [19] is 4T1. Briefly: Antitumor activity against mouse 4T1 cells xenografted in BALB/c mouse assessed as decrease in lung metastasis at 100 mg/kg, po administered once a day for 36 days by H&E staining based assay. Particulars: time 36.0 day. The series is classed as functional, organism-based.
For series [20], the system named is 4T1. As to the kind of experiment: Antitumor activity against mouse 4T1 cells xenografted in BALB/c mouse assessed as decrease in liver metastasis at 100 mg/kg, po administered once a day for 36 days by H&E staining based assay. Particulars: time 36.0 day. The format is functional, organism-based.
For series [21], the system named is 4T1. Briefly: Antitumor activity against mouse 4T1 cells expressing luciferase gene implanted in BALB/c lung metastatic mouse model assessed as reduction in fluorescence at 100 mg/kg, po administered once a day for 20 days by luciferase reporter gene based bioluminescence assay. The format is functional, organism-based. The note with it: time 20.0 day.
Series [22] deals with 4T1. As to the kind of experiment: Antitumor activity against mouse 4T1 cells expressing luciferase gene implanted in BALB/c lung metastatic mouse model assessed as decrease in lung metastasis at 100 mg/kg, po administered once a day for 20 days by H&E staining based assay. The format is functional, organism-based. Particulars: time 20.0 day.
Series [23] deals with 4T1. As to the kind of experiment: Antitumor activity against mouse 4T1 cells expressing luciferase gene implanted in BALB/c lung metastatic mouse model assessed as decrease in lung metastatic burden at 100 mg/kg, po administered once a day for 20 days by H&E staining based assay. The format is functional, organism-based. Particulars: time 20.0 day.
Series [24] has as its system 4T1. As to the kind of experiment: Antimetastatic activity against mouse 4T1 cells expressing luciferase gene implanted in BALB/c lung metastatic mouse model assessed as down regulation of E-cadherin expression in liver tissue at 100 mg/kg, po administered once a day for 20 days. The format is functional, organism-based. The note with it: time 20.0 day.
Series [25] concerns 4T1. Briefly: Antimetastatic activity against mouse 4T1 cells expressing luciferase gene implanted in BALB/c lung metastatic mouse model assessed as down regulation of ANXA2 expression in liver tissue at 100 mg/kg, po administered once a day for 20 days. Particulars: time 20.0 day. The series is classed as functional, organism-based.
The nature of series [26]: Toxicity in BALB/c mouse xenografted with mouse 4T1 assessed as effect on body weight at 100 mg/kg, po administered once a day for 36 days. The series is classed as organism-based. The note with it: in vivo, 864 h, time 36 day.

T1 sequence (P07355 2-339 limits assumed): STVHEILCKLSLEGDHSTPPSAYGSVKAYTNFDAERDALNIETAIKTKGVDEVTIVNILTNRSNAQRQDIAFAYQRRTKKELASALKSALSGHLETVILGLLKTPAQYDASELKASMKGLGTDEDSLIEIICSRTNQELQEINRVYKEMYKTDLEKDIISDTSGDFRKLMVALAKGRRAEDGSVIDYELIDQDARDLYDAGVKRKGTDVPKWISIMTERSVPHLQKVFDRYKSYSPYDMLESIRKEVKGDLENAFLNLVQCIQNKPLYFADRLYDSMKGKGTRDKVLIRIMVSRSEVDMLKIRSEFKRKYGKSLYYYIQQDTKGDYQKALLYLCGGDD
T1 sequence (P60903 whole entry partner): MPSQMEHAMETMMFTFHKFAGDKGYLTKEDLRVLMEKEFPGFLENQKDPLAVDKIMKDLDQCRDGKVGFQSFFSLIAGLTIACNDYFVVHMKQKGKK

For `CC(=O)O[C@H]1C(=O)[C@@]2(C)[C@H]([C@H](OC(=O)c3ccccc3)[C@]3(O)C[C@H](OC(=O)[C@H](O)[C@@H](NC(=O)c4ccccc4)c4ccccc4)C(C)=C1C3(C)C)[C@]1(OC(C)=O)CO[C@@H]1C[C@@H]2O`, in the series on 4T1 [1], the outcome was inactive.
On to `C=C1C(=O)O[C@@H]2C[C@@]3(C)CCC[C@H](C)[C@@]34O[C@H]4[C@H]12`, for which the pIC50 was 4.80 with MDA-MB-231 [2] and 4.74 with 4T1 [3]. Further, the inhibition entry (with MDA-MB-231 [4]; with 4T1 [5]; in the series with MDA-MB-231 [8]; in the series on 4T1 [9]; in [14]; in series [15]) was “Active” each time. In addition, the inhibition result in the series on MDA-MB-231 [16] and in the series with 4T1 [17] was “Active” each time. In addition, the inhibition result in the series with MDA-MB-231 [6] and in the series with 4T1 [7] was “Dose-Dependent Effect” each time. The outcome with MDA-MB-231 [10], in the series on 4T1 [11], in the series on MDA-MB-231 [12] and in the series with MDA-MB-231 [13] was Active.
For the compound `C[C@H]1CCC[C@]2(C)C[C@H]3OC(=O)[C@@H](CN(C)C)[C@H]3[C@@H]3O[C@@]132.O=C(O)/C=C/C(=O)O`, the inhibition in vivo at 100 mg/kg in the series with 4T1 [18] is 30%. In addition, the outcome in the series with 4T1 [19], in the series with 4T1 [20], with 4T1 [21], with 4T1 [22], in the series on 4T1 [23] and in the series with 4T1 [24] was Active. Moreover, the outcome with 4T1 [25] was Active. Further, the Activity result in series [26] is listed as “Non-Toxic”.
